{"source": "patent US20220127297A1", "about": "“Novel Antibacterial 3\"-Derivatives Of 4,6-Disubstituted 2,5-Dideoxystreptamine Aminoglycoside Antibiotics” (AGILeBiotics B.V., priority 2018, published 2022)", "experiment_in_all_cases": "MIC determination at Uppsala University", "format_in_all_cases": "cell-based", "key": {"E. coli C1162": {"system": "E. coli C1162", "details": "Escherichia coli, APH(3′)-Ia", "source_text": "(§1) 3.4.1 MIC Determination at Uppsala University (Sweden)\n(§2) Tested reference compounds. Amikacin disulfate (Cat. No. A1774, Sigma Aldrich), Apramycin sulfate (Cat. No. A2024, Sigma Aldrich) and Gentamicin sulfate (Cat. No. G1914, Sigma Aldrich).\n(§3) Bacterial strains/isolates. All assayed laboratory and clinical strains (P. aeruginosa PA01, A. baumanii ATCC 19606, A. baumanii 195N(a), A. baumanii 48F, E. coli C1162, E. coli C1181, M. morgannii S49 and P. stuartii B8-1) were from the IMI ND4BB ENABLE consortium strain collection. ATCC laboratory strains were acquired directly from the American Type Culture Collection. Clinical strains used were previously published (M Juhas, et al. J. Antimicrob. Chemother., 74 (4), 944-952 (2019); D. Hughes et al., Antimicrob. Agents Chemother., 47 (10), 3222-3232 (2003)) and were resistance genotyped within the ENABLE consortium.\n(§4) Culture media and equipment. Water (Thermo Scientific, R05819); Mueller-Hinton II broth (BD Ref. 212322); sterile round-bottom 96-well plates (Thermo Scientific, 262162); Sensititre Nephelometer (ThermoFisher Scientific, V3011); 0.5 McFarland Standard (ThermoFisher Scientific, E1041); sterile polyester film (VWR, 391-1251).\n(§5) Compound preparation. MIC assay procedure follows the CLSI M07 standard method (Clinical and Laboratory Standards Institute (CLSI); Methods for dilution antimicrobial susceptibility tests for bacteria that grow aerobically; approved standard—eleventh edition, M07-A10, Vol. 38, No. 2, 2018). Test compounds were received as solids and were dissolved in water to a concentration of 10 mg/mL of active compound. […] This solution was serially diluted in 2-fold steps in the first 10 columns of sterile round-bottom 96-well plates, while the final two columns were filled with Mueller-Hinton II broth without added compound for use as positive and negative growth controls.\n(§6) Inoculum preparation. Inoculums were prepared by suspending several colonies freshly streaked culture of test strains in 5 mL of sterile 0.9% NaCl. The cell density of the inoculum solution was assessed and adjusted using a Sensititre Nephelometer and a 0.5 McFarland Standard. The inoculum was diluted 1:100 in Mueller-Hinton II broth and 50 μL of this inoculum solution was added to 50 μL of the test compound solutions yielding a concentration range of 64-0.125 μg/mL. The plates were sealed with sterile polyester film and stationarily incubated at 37° C. for 18 hours.\n(§7) MIC determination. The MIC value was determined by visual inspection of bacterial growth within 96-well plates. The lowest concentration completely inhibiting growth was reported as the MIC for each strain and compound combination."}, "P. aeruginosa PAO1": {"system": "P. aeruginosa PAO1", "details": "Pseudomonas aeruginosa, AMEs: WT", "source_text": "as §1, §2, §3, §4, §5, §6, §7"}, "M. morgannii S49": {"system": "M. morgannii S49", "details": "Morganella morganii, AAC(3)-IId, ANT(3″), APH(3″)-Ib, APH(3′)-Ia, APH(6)-Id", "source_text": "as §1, §2, §3, §4, §5, §6, §7"}, "P. stuartii B8-1": {"system": "P. stuartii B8-1", "details": "Providencia stuartii, B81, AAC(3)-Ic, ANT (3″)Ia, APH(3′)-IIa, APH(3′)-IIb, APH(3′)-VI, APH(6)-Ic", "source_text": "as §1, §2, §3, §4, §5, §6, §7"}, "E. coli C1181": {"system": "E. coli C1181", "details": "Escherichia coli, ANT(3″)-Ia, APH(3′)-Ia", "source_text": "as §1, §2, §3, §4, §5, §6, §7"}, "A. baumanii 195N (a)": {"system": "A. baumanii 195N (a)", "details": "Acinetobacter baumannii, AAC(3)Ia, ANT(3″)Ia, APH(3″)Ib, APH(3′)VI, APH(6)Id", "source_text": "as §1, §2, §3, §4, §5, §6, §7"}, "A. baumanii 48F": {"system": "A. baumanii 48F", "details": "Acinetobacter baumannii; A. boumanii 48F; ANT(2″)Ia, APH(3″)-Ib, APH(3′)-VIa, APH(6)-Id", "source_text": "as §1, §2, §3, §4, §5, §6, §7"}, "A. baumanii ATCC 19606": {"system": "A. baumanii ATCC 19606", "details": "Acinetobacter baumannii, ATCC19606, AMEs: WT", "source_text": "as §1, §2, §3, §4, §5, §6, §7"}}, "data": [{"compound": "CN[C@@H]1[C@@H](O[C@H]2O[C@H](CO)[C@@H](N)[C@H](O)[C@H]2O)OC2C[C@@H](N)[C@@H](O[C@H]3[C@H](O)[C@@H](O)[C@H](N)C[C@@H]3N)OC2[C@@H]1O", "note": "(some centres unmarked) [Apramycin, apramycin, reference compound]", "values": [{"measurement": "MIC90", "setting": "E. coli C1162", "value": 8, "unit": "µg/mL"}, {"measurement": "MIC90", "setting": "P. aeruginosa PAO1", "value": 8, "unit": "µg/mL"}, {"measurement": "MIC90", "setting": "M. morgannii S49", "value": 8, "unit": "µg/mL"}, {"measurement": "MIC90", "setting": "P. stuartii B8-1", "value": 8, "unit": "µg/mL"}, {"measurement": "MIC90", "setting": "E. coli C1181", "value": 8, "unit": "µg/mL"}, {"measurement": "MIC90", "setting": "A. baumanii 195N (a)", "value": 32, "unit": "µg/mL"}, {"measurement": "MIC90", "setting": "A. baumanii 48F", "value": 32, "unit": "µg/mL"}, {"measurement": "MIC90", "setting": "A. baumanii ATCC 19606", "value": 32, "unit": "µg/mL"}]}]}
